Converted amounts (≈) assume the structure as drawn.

The Km is the substrate concentration at which the rate is half of its maximum. One may read the kcat as the maximal rate divided by the concentration of active sites. The kcat/Km is the turnover number divided by the Michaelis constant. Usually IC50 stands for the midpoint of a concentration-inhibition curve. Low readings indicate greater potency, high ones weaker potency.

Test [1] has as its system Escherichia coli. Description: microbe, parasite or virus in culture. The class given is functional. The note with it: DH5alpha.
Description: Antimicrobial activity against recombinant Escherichia coli DH5-alpha CL1295 isolate expressing pBK-TEM-151 and CMT by disk diffusion assay
For test [2], the system named is Escherichia coli. Description: Antimicrobial activity against Escherichia coli DH5-alpha CF1295 isolate expressing CMT and TEM1 by […]. The note with it: DH5alpha. The class given is functional.
The subject of test [3] is Escherichia coli. Description: Antimicrobial activity against recombinant Escherichia coli DH5-alpha isolate expressing pBK-TEM-29 and ESBL by disk diffusion assay. The format is functional. The note with it: DH5alpha. (In general: Agar diffusion results depend on both activity and mobility in agar.)
The subject of test [4] is Escherichia coli. Description: Antimicrobial activity against Escherichia coli DH5-alpha TC1179 isolate expressing TEM-1 by […]. The class given is functional. The note with it: DH5alpha.
In test [5] the test system is Escherichia coli. Description: Antimicrobial activity against recombinant Escherichia coli DH5-alpha isolate expressing pBK-TEM-36 and IRT by disk diffusion assay. The class given is functional. As to conditions: DH5alpha.
The test system of test [6] is Escherichia coli. Description: Antimicrobial activity against Escherichia coli DH5-alpha isolate expressing pBK-CMV by […]. The class given is functional. As to conditions: DH5alpha.
Test [7] concerns Escherichia coli. Kind of test: microbe, parasite or virus in culture. The format is functional. The note with it: DH5alpha. The source holds these as a separate data set.
Description: Antimicrobial activity against recombinant Escherichia coli DH5-alpha CL1179 isolate expressing pBK-TEM-152 and CMT by disk diffusion assay
Test [8] deals with Escherichia coli. Kind of test: Antimicrobial activity against recombinant Escherichia coli DH5-alpha isolate expressing pBK-TEM-28 and ESBL by disk diffusion assay. The note with it: DH5alpha. The format is functional.
Test [9] has as its system Escherichia coli. Description: Antimicrobial activity against recombinant Escherichia coli DH5-alpha isolate expressing pBK-TEM-1 and TEM1 by disk diffusion assay. The format is functional. The note with it: DH5alpha.
Test [10] relates to Escherichia coli. Description: Activity of Escherichia coli BL21(DE3) beta-lactamase TEM152.
In test [11] the test system is Escherichia coli. Description: Activity of Escherichia coli BL21(DE3) beta-lactamase TEM29.
Test [12] has as its system Escherichia coli. Description: Antimicrobial activity against Escherichia coli DH5-alpha TC1295 isolate expressing TEM-1 by […]. The class given is functional. The note with it: DH5alpha.
Test [13] deals with Escherichia coli. Kind of test: Activity of Escherichia coli BL21(DE3) beta-lactamase TEM1.
Test [14] concerns Escherichia coli. Description: Activity of Escherichia coli BL21(DE3) beta-lactamase TEM28.
Test [15] deals with Escherichia coli. Description: Activity of Escherichia coli BL21(DE3) beta-lactamase TEM151.
The subject of test [16] is Escherichia coli. Description: Activity of Escherichia coli BL21(DE3) beta-lactamase TEM36.
The subject of test [17] is Escherichia coli. Kind of test: Antimicrobial activity against Escherichia coli DH5-alpha CF1179 isolate expressing CMT and TEM1 by […]. The class given is functional. The note with it: DH5alpha.
A short description of test [18]: Inhibition of Escherichia coli BL21(DE3) beta-lactamase TEM36.
Test [19] is described as follows: Inhibition of Escherichia coli BL21(DE3) beta-lactamase TEM152.
The nature of test [20]: Inhibition of Escherichia coli BL21(DE3) beta-lactamase TEM28.
The nature of test [21]: Inhibition of Escherichia coli BL21(DE3) beta-lactamase TEM29.
A short description of test [22]: Inhibition of Escherichia coli BL21(DE3) beta-lactamase TEM1.
Test [23] can be described thus: Inhibition of Escherichia coli BL21(DE3) beta-lactamase TEM151.

For `CO/N=C(\C(=O)N[C@@H]1C(=O)N2C(C(=O)O)=C(COC(C)=O)CS[C@H]12)c1csc(N)n1` [CEFOTAXIME], the MIC is 0.06 µg/mL (≈ 0.132 µM) against Escherichia coli [1]; 0.12 µg/mL (≈ 0.263 µM) in the test with Escherichia coli [2]; 0.5 µg/mL with Escherichia coli [3]; 0.02 µg/mL (≈ 0.0439 µM) against Escherichia coli [4]; 0.06 µg/mL in the test on Escherichia coli [5]; 0.02 µg/mL (≈ 0.0439 µM) against Escherichia coli [6]. In addition, the MIC in the test with Escherichia coli [7] came to 0.25 µg/mL (≈ 0.549 µM); in the test with Escherichia coli [8], 4 µg/mL; with Escherichia coli [9], 0.06 µg/mL; against Escherichia coli [12], 0.02 µg/mL (≈ 0.0439 µM); against Escherichia coli [17] it was 0.12 µg/mL (≈ 0.263 µM). The Km came out at 34 µM in the test with Escherichia coli [10], 345 µM with Escherichia coli [11], 50 µM with Escherichia coli [14] and 304 µM in the test on Escherichia coli [15]. In addition, the turnover number (kcat) in the test with Escherichia coli [10] was 1 s⁻¹; in the test on Escherichia coli [11], 14 s⁻¹; in the test with Escherichia coli [13], below 0.1 s⁻¹; with Escherichia coli [14], 9 s⁻¹; in the test on Escherichia coli [15] it was 5 s⁻¹; in the test on Escherichia coli [16], below 0.1 s⁻¹. Moreover, the kcat/Km stood at 30000 M⁻¹ s⁻¹ with Escherichia coli [10], 40000 M⁻¹ s⁻¹ in the test with Escherichia coli [11], 180000 M⁻¹ s⁻¹ in the test with Escherichia coli [14] and 20000 M⁻¹ s⁻¹ in the test on Escherichia coli [15].
Take `CC1(C)S[C@@H]2[C@H](NC(=O)[C@H](C(=O)O)c3ccsc3)C(=O)N2[C@H]1C(=O)O` [TICARCILLIN]: the MIC in the test with Escherichia coli [1] is above 2050 µg/mL; in the test with Escherichia coli [2], above 2050 µg/mL; in the test on Escherichia coli [3], above 2050 µg/mL; in the test on Escherichia coli [4] it was above 2050 µg/mL; in the test on Escherichia coli [5], above 2050 µg/mL; in the test with Escherichia coli [6], 2 µg/mL (≈ 5.2 µM). Moreover, the MIC in the test with Escherichia coli [7], in the test on Escherichia coli [8], in the test with Escherichia coli [9], with Escherichia coli [12] and against Escherichia coli [17] was above 2050 µg/mL in each case. Further, the Km in the test with Escherichia coli [10] was 36 µM; in the test with Escherichia coli [11], 14 µM; in the test with Escherichia coli [13] it was 36 µM; in the test with Escherichia coli [14], 9 µM; in the test with Escherichia coli [15], 21 µM; with Escherichia coli [16], 130 µM. Further, the kcat in the test on Escherichia coli [10] amounted to 51 s⁻¹; with Escherichia coli [11] it was 42 s⁻¹; in the test with Escherichia coli [13], 135 s⁻¹; in the test with Escherichia coli [14], 38 s⁻¹; with Escherichia coli [15], 60 s⁻¹; in the test with Escherichia coli [16], 176 s⁻¹. Moreover, the kcat/Km in the test with Escherichia coli [10] worked out at 1.4e+06 M⁻¹ s⁻¹; with Escherichia coli [11], 3e+06 M⁻¹ s⁻¹; in the test on Escherichia coli [13], 3.8e+06 M⁻¹ s⁻¹; in the test on Escherichia coli [14] it was 4.2e+06 M⁻¹ s⁻¹; in the test with Escherichia coli [15] it was 2.9e+06 M⁻¹ s⁻¹; with Escherichia coli [16], 1.3e+06 M⁻¹ s⁻¹.
For `O=C(O)[C@H]1/C(=C/CO)O[C@@H]2CC(=O)N21` [CLAVULANIC ACID], the IC50 in test [18] is 80 nM; in test [19] it was 1000 nM; in test [20], 20 nM; in test [21], 20500 nM; in [22], 25 nM; in [23], 170 nM.
Take `CC(C)(O/N=C(\C(=O)N[C@@H]1C(=O)N2C(C(=O)[O-])=C(C[n+]3ccccc3)CS[C@H]12)c1csc(N)n1)C(=O)O` [CEFTAZIDIME]: the MIC in the test with Escherichia coli [1] came out at 8 µg/mL (≈ 14.6 µM); in the test with Escherichia coli [2], 4 µg/mL (≈ 7.32 µM); with Escherichia coli [3], 32 µg/mL; against Escherichia coli [4] it was 0.12 µg/mL (≈ 0.22 µM); in the test with Escherichia coli [5], 0.25 µg/mL; with Escherichia coli [6], 0.12 µg/mL (≈ 0.22 µM). Besides, the MIC with Escherichia coli [7] stood at 512 µg/mL (≈ 937 µM); with Escherichia coli [8], 512 µg/mL; in the test on Escherichia coli [9] it was 0.12 µg/mL; against Escherichia coli [12], 0.12 µg/mL (≈ 0.22 µM); in the test on Escherichia coli [17], 64 µg/mL (≈ 117 µM). Moreover, the Km with Escherichia coli [10] stood at 230 µM; in the test on Escherichia coli [11], 215 µM; in the test on Escherichia coli [14], 240 µM; with Escherichia coli [15] it was 250 µM. For the same compound, the kcat was 16 s⁻¹ in the test with Escherichia coli [10]; 10 s⁻¹ with Escherichia coli [11]; below 0.1 s⁻¹ in the test with Escherichia coli [13]; 64 s⁻¹ in the test on Escherichia coli [14]; 5 s⁻¹ in the test with Escherichia coli [15]; below 0.1 s⁻¹ in the test on Escherichia coli [16]. Further, the kcat/Km is 70000 M⁻¹ s⁻¹ in the test on Escherichia coli [10], 50000 M⁻¹ s⁻¹ in the test on Escherichia coli [11], 270000 M⁻¹ s⁻¹ with Escherichia coli [14] and 20000 M⁻¹ s⁻¹ with Escherichia coli [15].
As for `C[C@]1(Cn2ccnn2)[C@H](C(=O)O)N2C(=O)C[C@H]2S1(=O)=O` [TAZOBACTAM], the IC50 in [18] is 130 nM; in test [19] it was 400 nM; in [20], 20 nM; in test [21], 2400 nM; in test [22], 30 nM; in test [23], 270 nM.
